# Results taken from patent US6589993B2, “Treating vancomycin-intermediates and multiresistant staphylococci infection with thiamphenicol or a salt thereof” (Zambon Group S.p.A., priority 2000, dated 2003).
# Read-outs that look alike come from different tables or passages of the source.
# Columns and labels:
# [1] = tested on: S. aureus Met-R multiresistant strains; test: MIC determination (NCCLS broth microdilution), methicillin-resistant multiresistant S. aureus strains; assay type: cell-based, Staphylococcus aureus; settings: for MIC / MIC50 / MIC90: Staphylococcus aureus; for MIC: antibiotype Oxa, Ery, read-out: MIC; for MIC50: read-out: MIC 50%; for MIC90: read-out: MIC 90%
# Procedure, shortened: (§1)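 NCCLS broth microdilution in cation-supplemented Mueller-Hinton broth, final inoculum 5×10^5 from exponential-phase bacteria; 2% NaCl added for methicillin testing. MIC taken as lowest concentration preventing visible growth after 18–24 h at 37 °C, with S. aureus ATCC 29213 as QC strain.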
# [2] = tested on: S. aureus vancomycin-intermediates (VISA) Met-R strains; test: MIC determination (NCCLS broth microdilution), VISA Met-R strains; assay type: cell-based, Staphylococcus aureus; settings: for MIC: antibiotype Oxa, Cip, Clin, Ery
# Procedure, shortened: as §1
# Staphylococci = settings: toward strains of Staphylococci; Kayser et al. 1974; cited from earlier work
# [3] = Strain 30, Cip, Clin, Gm, SXT, Dox
# [4] = Strain 32, Cip, Clin, Gm, SXT, Rif
# [5] = Strain 44, Cip, Clin, Gm, Rif, Dox
# [6] = Strain 45, Cip, Clin, Gm, Rif, Dox, Fos
# [7] = Strain 50, Cip, Clin, Gm, Rif, Dox
# [8] = Staphylococcus aureus, Strain 51 VISA, read-out: MIC
smiles,measurement,setting,value
"CS(=O)(=O)c1ccc([C@@H](O)[C@@H](CO)NC(=O)C(Cl)Cl)cc1 [Thiamphenicol, thiamphenicol]",% susceptible at breakpoint,"[1]; S. aureus (50) Met-R, NCCLS (1999) breakpoints",66%
same,MIC,"[1]; Strain 1, Cip, Clin, Gm",8 µg/mL
same,MIC,"[1]; Strain 2, Clin, Fos",> 64 µg/mL
same,MIC,"[1]; Strain 3, Cip, Clin, Gm",16 µg/mL
same,MIC,"[1]; Strain 4, Cip, Gm",8 µg/mL
same,MIC,"[1]; Strain 5, Cip, Clin",> 64 µg/mL
same,MIC,"[1]; Strain 6, Clin, Gm",> 64 µg/mL
same,MIC,"[1]; Strain 7, Cip, Gm",16 µg/mL
same,MIC,"[1]; Strain 8, Cip, Clin",> 64 µg/mL
same,MIC,"[1]; Strain 9, Cip, Clin, Gm",8 µg/mL
same,MIC,"[1]; Strain 10, Cip, Clin, Gm",4 µg/mL
same,MIC,"[1]; Strain 11, Clin, Rif",> 64 µg/mL
same,MIC,"[1]; Strain 12, Cip, Clin",> 64 µg/mL
same,MIC,"[1]; Strain 13, Cip, Clin",16 µg/mL
same,MIC,"[1]; Strain 14, Clin, Cip",16 µg/mL
same,MIC,"[1]; Strain 15, Cip, Clin, Gm",16 µg/mL
same,MIC,"[1]; Strain 16, Cip, Clin",8 µg/mL
same,MIC,"[1]; Strain 17, Cip, Clin",16 µg/mL
same,MIC,"[1]; Strain 18, Cip, Clin, Gm",> 64 µg/mL
same,MIC,"[1]; Strain 19, Cip, Clin, Gm",16 µg/mL
same,MIC,"[1]; Strain 20, Cip, Clin, Gm",> 64 µg/mL
same,MIC,"[1]; Strain 21, Cip, Clin, Gm",> 64 µg/mL
same,MIC,"[1]; Strain 22, Cip, Clin",16 µg/mL
same,MIC,"[1]; Strain 23, Cip, Clin, Gm",> 64 µg/mL
same,MIC,"[1]; Strain 24, Cip, Clin, Gm",> 64 µg/mL
same,MIC,"[1]; Strain 25, Cip, Clin, Gm",16 µg/mL
same,MIC,"[1]; Strain 26, Cip, Clin, Fos, Gm",16 µg/mL
same,MIC,"[1]; Strain 27, Cip, Clin, Fos, Gm",16 µg/mL
same,MIC,"[1]; Strain 28, Cip, Clin, Gm",> 64 µg/mL
same,MIC,"[1]; Strain 29, Clin, Fos",16 µg/mL
same,MIC,[1]; [3],16 µg/mL
same,MIC,"[1]; Strain 31, Cip, Clin, Fox, Gm",16 µg/mL
same,MIC,[1]; [4],> 64 µg/mL
same,MIC,"[1]; Strain 33, Cip, Clin, Gm",> 64 µg/mL
same,MIC,"[1]; Strain 34, Cip, Clin, Gm",> 64 µg/mL
same,MIC,"[1]; Strain 35, Cip, Clin, Gm",16 µg/mL
same,MIC,"[1]; Strain 36, Cip, Clin, Fos",16 µg/mL
same,MIC,"[1]; Strain 37, Cip, Clin, Fos, Gm",16 µg/mL
same,MIC,"[1]; Strain 38, Cip, Gm",8 µg/mL
same,MIC,"[1]; Strain 39, Cip, Clin, Fos, Gm",16 µg/mL
same,MIC,"[1]; Strain 40, Cip, Clin, Gm",16 µg/mL
same,MIC,"[1]; Strain 41, Cip, Clin",16 µg/mL
same,MIC,"[1]; Strain 42, Cip, Clin, Gm",8 µg/mL
same,MIC,"[1]; Strain 43, Cip, Clin, Gm",16 µg/mL
same,MIC,[1]; [5],16 µg/mL
same,MIC,[1]; [6],16 µg/mL
same,MIC,"[1]; Strain 46, Clin, Fos",16 µg/mL
same,MIC,"[1]; Strain 47, Cip, Clin, Gm",8 µg/mL
same,MIC,"[1]; Strain 48, Cip, Clin",> 64 µg/mL
same,MIC,"[1]; Strain 49, Cip, Gm",16 µg/mL
same,MIC,[1]; [7],> 64 µg/mL
same,MIC50,[1]; S. aureus (50) Met-R,16 µg/mL
same,MIC90,[1]; S. aureus (50) Met-R,> 64 µg/mL
same,activity (MIC) compared with cloramphenicol,"[1]; VISA and multiresistant Staphylococcus aureus strains, in vitro",comparable to that as of cloramphenicol
same,MIC,[2]; [8],16 µg/mL
same,MIC,[2]; Strain 52 VISA,16 µg/mL
same,MIC Range,[2]; VISA (2) Met-R,16 µg/mL
same,% susceptible at breakpoint,"[2]; VISA (2) Met-R, NCCLS (1999) breakpoints",100%
same,in vitro activity relative to chloramphenicol (times less active),Staphylococci,2 to 4 times
"CC[C@H]1OC(=O)[C@H](C)[C@@H](O[C@H]2C[C@@](C)(OC)[C@@H](O)[C@H](C)O2)[C@H](C)[C@@H](O[C@@H]2O[C@H](C)C[C@H](N(C)C)[C@H]2O)[C@](C)(O)C[C@@H](C)C(=O)[C@H](C)[C@@H](O)[C@]1(C)O [Erythromycin, erythromycin]",MIC,"[1]; Strain 1, Cip, Clin, Gm",> 64 µg/mL
same,MIC,"[1]; Strain 2, Clin, Fos",> 64 µg/mL
same,MIC,"[1]; Strain 3, Cip, Clin, Gm",> 64 µg/mL
same,MIC,"[1]; Strain 4, Cip, Gm",> 64 µg/mL
same,MIC,"[1]; Strain 5, Cip, Clin",> 64 µg/mL
same,MIC,"[1]; Strain 6, Clin, Gm",> 64 µg/mL
same,MIC,"[1]; Strain 7, Cip, Gm",> 64 µg/mL
same,MIC,"[1]; Strain 8, Cip, Clin",> 64 µg/mL
same,MIC,"[1]; Strain 9, Cip, Clin, Gm",> 64 µg/mL
same,MIC,"[1]; Strain 10, Cip, Clin, Gm",> 64 µg/mL
same,MIC,"[1]; Strain 11, Clin, Rif",> 64 µg/mL
same,MIC,"[1]; Strain 12, Cip, Clin",> 64 µg/mL
same,MIC,"[1]; Strain 13, Cip, Clin",> 64 µg/mL
same,MIC,"[1]; Strain 14, Clin, Cip",> 64 µg/mL
same,MIC,"[1]; Strain 15, Cip, Clin, Gm",> 64 µg/mL
same,MIC,"[1]; Strain 16, Cip, Clin",> 64 µg/mL
same,MIC,"[1]; Strain 17, Cip, Clin",> 64 µg/mL
same,MIC,"[1]; Strain 18, Cip, Clin, Gm",> 64 µg/mL
same,MIC,"[1]; Strain 19, Cip, Clin, Gm",> 64 µg/mL
same,MIC,"[1]; Strain 20, Cip, Clin, Gm",> 64 µg/mL
same,MIC,"[1]; Strain 21, Cip, Clin, Gm",> 64 µg/mL
same,MIC,"[1]; Strain 22, Cip, Clin",> 64 µg/mL
same,MIC,"[1]; Strain 23, Cip, Clin, Gm",> 64 µg/mL
same,MIC,"[1]; Strain 24, Cip, Clin, Gm",> 64 µg/mL
same,MIC,"[1]; Strain 25, Cip, Clin, Gm",> 64 µg/mL
same,MIC,"[1]; Strain 26, Cip, Clin, Fos, Gm",> 64 µg/mL
same,MIC,"[1]; Strain 27, Cip, Clin, Fos, Gm",> 64 µg/mL
same,MIC,"[1]; Strain 28, Cip, Clin, Gm",> 64 µg/mL
same,MIC,"[1]; Strain 29, Clin, Fos",> 64 µg/mL
same,MIC,[1]; [3],> 64 µg/mL
same,MIC,"[1]; Strain 31, Cip, Clin, Fox, Gm",> 64 µg/mL
same,MIC,[1]; [4],> 64 µg/mL
same,MIC,"[1]; Strain 33, Cip, Clin, Gm",> 64 µg/mL
same,MIC,"[1]; Strain 34, Cip, Clin, Gm",> 64 µg/mL
same,MIC,"[1]; Strain 35, Cip, Clin, Gm",> 64 µg/mL
same,MIC,"[1]; Strain 36, Cip, Clin, Fos",> 64 µg/mL
same,MIC,"[1]; Strain 37, Cip, Clin, Fos, Gm",64 µg/mL
same,MIC,"[1]; Strain 38, Cip, Gm",> 64 µg/mL
same,MIC,"[1]; Strain 39, Cip, Clin, Fos, Gm",64 µg/mL
same,MIC,"[1]; Strain 40, Cip, Clin, Gm",> 64 µg/mL
same,MIC,"[1]; Strain 41, Cip, Clin",> 64 µg/mL
same,MIC,"[1]; Strain 42, Cip, Clin, Gm",> 64 µg/mL
same,MIC,"[1]; Strain 43, Cip, Clin, Gm",> 64 µg/mL
same,MIC,[1]; [5],> 64 µg/mL
same,MIC,[1]; [6],> 64 µg/mL
same,MIC,"[1]; Strain 46, Clin, Fos",> 64 µg/mL
same,MIC,"[1]; Strain 47, Cip, Clin, Gm",> 64 µg/mL
same,MIC,"[1]; Strain 48, Cip, Clin",> 64 µg/mL
same,MIC,"[1]; Strain 49, Cip, Gm",> 64 µg/mL
same,MIC,[1]; [7],> 64 µg/mL
same,MIC50,[1]; S. aureus (50) Met-R,> 64 µg/mL
same,MIC90,[1]; S. aureus (50) Met-R,> 64 µg/mL
same,MIC,[2]; [8],> 64 µg/mL
same,MIC,[2]; Strain 52 VISA,>64 µg/mL
same,MIC Range,[2]; VISA (2) Met-R,>64 µg/mL
